# Source: ChEMBL document CHEMBL4418308, “cGAS ANTAGONIST COMPOUNDS” (2017)
# pIC50: −log10 of the molar value.
# Target: T1, Cyclic GMP-AMP synthase (Homo sapiens, UniProt Q8N884)
# Experiment: Inhibition of recombinant His6-SUMO tagged human CGAS expressed in Escherichia coli BL21/pLys cells incubated for 20 mins by Kinase Glo chemiluminescence assay
# T1 sequence (Q8N884 whole entry): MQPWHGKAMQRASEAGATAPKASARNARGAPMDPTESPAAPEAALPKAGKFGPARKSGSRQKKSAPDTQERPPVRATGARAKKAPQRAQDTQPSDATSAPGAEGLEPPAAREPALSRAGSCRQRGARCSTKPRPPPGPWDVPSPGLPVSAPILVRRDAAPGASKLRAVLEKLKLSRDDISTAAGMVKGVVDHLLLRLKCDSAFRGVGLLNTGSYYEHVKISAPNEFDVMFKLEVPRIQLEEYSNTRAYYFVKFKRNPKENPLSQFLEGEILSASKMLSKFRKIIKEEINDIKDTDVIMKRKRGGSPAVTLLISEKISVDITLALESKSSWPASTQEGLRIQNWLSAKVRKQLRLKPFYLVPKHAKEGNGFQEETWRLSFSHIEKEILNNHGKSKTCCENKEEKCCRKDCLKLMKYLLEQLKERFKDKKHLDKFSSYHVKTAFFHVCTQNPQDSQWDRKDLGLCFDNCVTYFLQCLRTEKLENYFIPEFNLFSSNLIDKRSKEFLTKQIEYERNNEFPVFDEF
row,SMILES,pIC50
1,CN1C(=O)S/C(=C\c2cc(Oc3cccc(O)c3N)c(O)cc2Br)C1=O,≤ 5.00
2,CC(C)c1cc(/C=C2\SC(=O)N(C)C2=O)c(Br)cc1O,≤ 5.00
3,CC(=O)c1cc(/C=C2\SC(=O)N(C)C2=O)c(Br)cc1Oc1cnc(N)s1,≤ 5.00
4,CN1C(=O)S/C(=C\c2cc(OCC(=O)Nc3nncs3)c(O)c(F)c2Br)C1=O,5.00 to 6.30
5,CN1C(=O)S/C(=C\c2cc(OCc3cncnc3O)c(O)cc2Br)C1=O,≥ 6.30
6,CC(C)CNc1cncc(COc2cc(/C=C3\SC(=O)N(C)C3=O)c(Br)cc2O)c1,≤ 5.00
7,COc1cc(/C=C2\Sc3ncccc3C2=O)c(Br)cc1O,≥ 6.30
8,CC(Oc1cc(/C=C2\SC(=O)N(C)C2=O)c(Br)c(F)c1Oc1cnc(N)s1)c1cnc(N)nc1 (stereo not given),5.00 to 6.30
9,CC(=O)c1cc(N)ccc1Oc1cc(/C=C2\SC(=O)N(C)C2=O)c(Br)c(F)c1O,≤ 5.00
10,CN1C(=O)S/C(=C\c2cc(OCc3cncc(NCc4ccncc4)c3)c(O)cc2Br)C1=O,≤ 5.00
11,CSc1nc([S+](C)[O-])ncc1COc1cc(/C=C2\Sc3ncccc3C2=O)c(Br)c(F)c1O (stereo not given),≥ 6.30
12,COc1cc(/C=C2\SC(=O)N(C)C2=O)c(Br)cc1Oc1cnc(NCc2cccnc2)s1,≤ 5.00
13,COc1cc(/C=C2\SC(=O)N(C)C2=O)c(Cl)cc1O,≥ 6.30
14,CN1C(=O)S/C(=C\c2cc(O)c(O)cc2Br)C1=O,≤ 5.00
15,CN1C(=O)S/C(=C\c2cc(C(C)(F)F)c(O)cc2Br)C1=O,≤ 5.00
16,CN1C(=O)S/C(=C\c2cc(C(F)(F)F)c(O)cc2Br)C1=O,≥ 6.30
17,CSc1ccc(CCc2cc(/C=C3\SC(=O)N(C)C3=O)c(Br)cc2O)cc1,5.00 to 6.30
18,COc1nc(N)ncc1COc1cc(/C=C2\SC(=O)N(C)C2=O)c(Br)cc1O,≤ 5.00
19,COc1cc(/C=C2\SC(=O)N(C)C2=O)c(Br)cc1OCc1ccncc1,≤ 5.00
20,Cc1nc(N)nc(C)c1COc1cc(/C=C2\SC(=O)N(C)C2=O)c(Br)cc1O,≤ 5.00
21,CN1C(=O)S/C(=C\c2cc(OCc3cccnc3)c(O)c(F)c2Br)C1=O,≥ 6.30

row,SMILES,pIC50
1,CN1C(=O)S/C(=C\c2cc3c(Cc4cnc(N)nc4)c[nH]c3cc2Br)C1=O,≤ 5.00
2,CN1C(=O)S/C(=C\c2cc(Oc3ccc(-c4ccccn4)cc3)c(O)cc2Br)C1=O,≤ 5.00
3,CN1C(=O)S/C(=C\c2cc(Oc3ccc(-c4ccncc4)cc3)c(O)cc2Br)C1=O,≤ 5.00
4,COc1cc(/C=C2\SC(=S)N(C)C2=O)c(Br)cc1O,≥ 6.30
5,CN1C(=O)S/C(=C\c2cc(OCc3cccnc3)c(O)cc2Br)C1=O,≥ 6.30
6,CN1C(=O)S/C(=C\c2cc(OCc3cnc([S+](C)[O-])nc3Cl)c(O)cc2Br)C1=O (stereo not given),≤ 5.00
7,CN1C(=O)S/C(=C\c2cc(CCc3ccc([S+](C)[O-])cc3)c(O)cc2Br)C1=O (stereo not given),≤ 5.00
8,CC(C)C(=O)Nc1cncc(COc2cc(/C=C3\SC(=O)N(C)C3=O)c(Br)cc2O)c1,≤ 5.00
9,Cc1nc(N)ncc1C(C)Oc1cc(/C=C2\Sc3ncccc3C2=O)c(Br)c(F)c1O (stereo not given),≥ 6.30
10,CN1C(=O)S/C(=C\c2cc(OCc3cnc(S)nc3)c(O)cc2Br)C1=O,≤ 5.00
11,CN1C(=O)S/C(=C\c2cc(OCc3cn(-c4ccccc4)nn3)c(O)cc2Br)C1=O,≤ 5.00
12,CN1C(=O)S/C(=C\c2cc(OCc3cnc(S(C)(=O)=O)nc3Cl)c(O)cc2Br)C1=O,≤ 5.00
13,COc1cc(/C=C2\SC(=O)N(C)C2=O)c(Br)cc1NS(=O)(=O)c1csc(N)n1,5.00 to 6.30
14,CN1C(=O)S/C(=C\c2cc(CC(F)(F)F)c(O)cc2Br)C1=O,5.00 to 6.30
15,Cc1nc([S+](C)[O-])nc(C)c1COc1cc(/C=C2\SC(=O)N(C)C2=O)c(Br)cc1O (stereo not given),≤ 5.00
16,CSc1ncncc1C(=O)C(C)Oc1cc(/C=C2\SC(=O)N(C)C2=O)c(Br)c(F)c1O (stereo not given),≤ 5.00
17,COc1cc(/C=C2\SC(=O)N(C)C2=O)c(Br)cc1Oc1ccnc2ccccc12,≤ 5.00
18,CCC(Oc1cc(/C=C2\SC(=O)N(C)C2=O)c(Br)c(F)c1O)c1cnc(Cl)nc1 (stereo not given),5.00 to 6.30
19,CN1C(=O)S/C(=C\c2cc(Oc3cccc4cnccc34)c(O)cc2Br)C1=O,≤ 5.00
20,CN1C(=O)S/C(=C\c2cc(OCCc3cnc(N)nc3)c(O)cc2Br)C1=O,≥ 6.30
21,CN1C(=O)S/C(=C\c2cc(Oc3cccc4ncccc34)c(O)cc2Br)C1=O,≤ 5.00

row,SMILES,pIC50
1,CN1C(=O)S/C(=C\c2cc(OCC(F)(F)c3cnc(N)nc3)c(O)c(F)c2Br)C1=O,5.00 to 6.30
2,CCN1C(=O)S/C(=C\c2cc(OC)c(O)cc2Br)C1=O,5.00 to 6.30
3,CC(C)c1cc(/C=C2\Sc3ncccc3C2=O)c(Br)cc1O,≤ 5.00
4,CN1C(=O)S/C(=C\c2cc3cc[nH]c3c(F)c2Br)C1=O,5.00 to 6.30
5,O=C1/C(=C/c2cc(C(F)(F)F)c(O)cc2Br)Sc2ncccc21,≥ 6.30
6,C#CCOc1cc(/C=C2\SC(=O)N(C)C2=O)c(Br)cc1O,5.00 to 6.30
7,CN1C(=O)S/C(=C\c2cc(OC(F)(F)F)c(Oc3cnc(N)s3)cc2Br)C1=O,≤ 5.00
8,CN1C(=O)S/C(=C\c2cc(Oc3ccc(=O)[nH]c3)c(O)cc2Br)C1=O,5.00 to 6.30
9,COc1cc(/C=C2\SC(=O)N(C)C2=O)c(Br)cc1NS(=O)(=O)c1ccccn1,≤ 5.00
10,CN1C(=O)S/C(=C\c2cc(OCc3cnc(O)nc3)c(O)cc2Br)C1=O,≤ 5.00
11,C/N=C1/S/C(=C\c2cc(OC)c(O)cc2Br)C(=O)N1C,≤ 5.00
12,Nc1ncc(/C=C/c2cc(/C=C3\Sc4ncccc4C3=O)c(Br)cc2O)cn1,≥ 6.30
13,CCC/N=C1/S/C(=C\c2cc(OC)c(O)cc2Br)C(=O)N1C,≤ 5.00
14,CN1C(=O)S/C(=C\c2cc(OCc3ccncc3)c(O)cc2Br)C1=O,5.00 to 6.30
15,CN1C(=O)S/C(=C\c2cc(OCC3(c4cnc(N)nc4)CC3)c(O)c(F)c2Br)C1=O,5.00 to 6.30
16,COc1cc(/C=c2\sc3nccn3c2=O)c(Br)cc1O,≥ 6.30
17,CC(Oc1cc(/C=C2\SC(=O)N(C)C2=O)c(Br)c(F)c1O)C(O)c1cncnc1N (stereo not given),≥ 6.30
18,COc1cc(/C=C2\SC(=O)N(C)C2=O)c(C#N)cc1O,≤ 5.00
19,CN1C(=O)S/C(=C\c2cc(OCCc3cnc(N)nc3N)c(O)c(F)c2Br)C1=O,≥ 6.30
20,CN1C(=O)S/C(=C\c2cc(OCc3cccc4[nH]ccc34)c(O)cc2Br)C1=O,5.00 to 6.30
21,COc1cc(/C=C2\SC(=O)N(C)C2=O)c(Br)cc1Oc1ccncc1,≤ 5.00

row,SMILES,pIC50
1,CN1C(=O)S/C(=C\c2cc(Oc3cccc4c3COCC4)c(O)cc2Br)C1=O,≤ 5.00
2,Cc1nc2c(Oc3cc(/C=C4\SC(=O)N(C)C4=O)c(Br)cc3O)cccc2o1,5.00 to 6.30
3,CN1CCC(c2ncc(COc3cc(/C=C4\SC(=O)N(C)C4=O)c(Br)cc3O)cn2)CC1,≤ 5.00
4,CN1C(=O)S/C(=C\c2cc(OCc3cncc(NC(=O)c4ccncc4)c3)c(O)cc2Br)C1=O,≤ 5.00
5,COc1cc(/C=C2\Sc3ccccc3C2=O)c(Br)cc1O,5.00 to 6.30
6,COc1cc(/C=C2\SC(=O)N(C)C2=O)c(Br)cc1Oc1cnc(NCc2ccncc2)s1,≤ 5.00
7,CC(Cc1cnc(N)nc1)Oc1cc(/C=C2\SC(=O)N(C)C2=O)c(Br)c(F)c1O (stereo not given),5.00 to 6.30
8,COc1cccc(Oc2cc(/C=C3\SC(=O)N(C)C3=O)c(Br)cc2O)c1N,≤ 5.00
9,CN1C(=O)S/C(=C\c2cc(CCc3cnc(N)nc3)c(O)cc2Br)C1=O,5.00 to 6.30
10,COc1nc(S(C)(=O)=O)ncc1COc1cc(/C=C2\SC(=O)N(C)C2=O)c(Br)cc1O,≤ 5.00
11,[2H]C(C)(Oc1cc(/C=C2\SC(=O)N(C)C2=O)c(Br)c(F)c1O)c1cnc(N)nc1 (stereo not given),≥ 6.30
12,CN1C(=O)S/C(=C\c2cc(OCc3cncc(NC(=O)c4cccnc4)c3)c(O)cc2Br)C1=O,≤ 5.00
13,CN1C(=O)S/C(=C\c2cc(Oc3cnc(N)s3)c(O)c(F)c2Br)C1=O,5.00 to 6.30
14,COc1nc([S+](C)[O-])ncc1COc1cc(/C=C2\SC(=O)N(C)C2=O)c(Br)cc1O (stereo not given),≤ 5.00
15,CC/N=C1/S/C(=C\c2cc(OC)c(O)cc2Br)C(=O)N1C,≤ 5.00
16,CN1C(=O)S/C(=C\c2cc(OCc3cncc(NCc4ccccn4)c3)c(O)cc2Br)C1=O,≤ 5.00
17,CN1C(=O)S/C(=C\c2cc(Oc3ccncc3)c(O)cc2Br)C1=O,≤ 5.00
18,COc1cc(/C=C2\SC(=O)N(C)C2=O)c(Br)cc1Oc1nncs1,≤ 5.00
19,CN1C(=O)S/C(=C\c2cc3c(-c4ccc(N)cc4)c[nH]c3cc2Br)C1=O,5.00 to 6.30
20,CCOc1cc(/C=C2\SC(=O)N(C)C2=O)c(Br)cc1O,≥ 6.30
21,CC(Oc1cc(CC2Sc3ncccc3C2=O)c(Br)c(F)c1O)c1cnc(Cl)nc1 (stereo not given),≤ 5.00

# Target: T1, Cyclic GMP-AMP synthase
# Experiment: Inhibition of CGAS in human THP1 cells transfected with interferon stimulatory DNA and measured after 16 hrs by Gaussia luciferase reporter gene assay
# Format: cell-based
row,SMILES,pIC50
1,COc1cc(/C=C2\Sc3ncccc3C2=O)c(Br)cc1O,5.00 to 5.60
2,COc1cc(/C=C2\SC(=O)N(C)C2=O)c(Cl)cc1O,≥ 5.60
3,CN1C(=O)S/C(=C\c2cc(O)c(O)cc2Br)C1=O,5.00 to 5.60
4,CN1C(=O)S/C(=C\c2cc(OCc3cccnc3)c(O)c(F)c2Br)C1=O,5.00 to 5.60
5,COc1cc(/C=C2\SC(=S)N(C)C2=O)c(Br)cc1O,5.00 to 5.60
6,CN1C(=O)S/C(=C\c2cc(OCc3cccnc3)c(O)cc2Br)C1=O,5.00 to 5.60
7,COc1cc(/C=C2\SC(=O)N(C)C2=O)c(Br)cc1NS(=O)(=O)c1csc(N)n1,≥ 5.60
8,CN1C(=O)S/C(=C\c2cc(OCCc3cnc(N)nc3)c(O)cc2Br)C1=O,≥ 5.60
9,CCN1C(=O)S/C(=C\c2cc(OC)c(O)cc2Br)C1=O,5.00 to 5.60
10,C#CCOc1cc(/C=C2\SC(=O)N(C)C2=O)c(Br)cc1O,5.00 to 5.60
11,COc1cc(/C=C2\SC(=O)N(C)C2=O)c(Br)cc1NS(=O)(=O)c1ccccn1,5.00 to 5.60
12,CN1C(=O)S/C(=C\c2cc(OCc3ccncc3)c(O)cc2Br)C1=O,≥ 5.60
13,COc1cc(/C=c2\sc3nccn3c2=O)c(Br)cc1O,5.00 to 5.60
14,CN1C(=O)S/C(=C\c2cc(OCc3cccc4[nH]ccc34)c(O)cc2Br)C1=O,5.00 to 5.60
15,COc1cc(/C=C2\Sc3ccccc3C2=O)c(Br)cc1O,≥ 5.60
16,CCOc1cc(/C=C2\SC(=O)N(C)C2=O)c(Br)cc1O,≥ 5.60
